Source: the supplement of paper PMC11451515

Tested on: P12-Ichikawa
Test: cell viability relative to DMSO control; higher = less cytotoxic
Conditions: 48 h
In short: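 Viability is a per-plate percentage relative to DMSO wells, with cell-free wells as background. CellTiter-Glo One luminescence was read after 48 h at 37°C on 1536-well plates (5 μl) of NOMO1 or SEM (500 cells/well) or P12-Ichikawa (1000 cells/well) leukemia cells. The cells had been adapted for at least four passages in each medium and pin-dosed with library compounds in DMSO from 47 μM to 0.79 nM in 11 threefold steps.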

[1] = HPLM + 10% dialyzed FBS, 0.000781 µM
[2] = HPLM + 10% dialyzed FBS, 0.00234 µM
[3] = HPLM + 10% dialyzed FBS, 0.00702 µM
[4] = HPLM + 10% dialyzed FBS, 0.0211 µM
[5] = HPLM + 10% dialyzed FBS, 0.0632 µM
[6] = HPLM + 10% dialyzed FBS, 0.19 µM
[7] = HPLM + 10% dialyzed FBS, 0.569 µM
[8] = HPLM + 10% dialyzed FBS, 1.71 µM
[9] = HPLM + 10% dialyzed FBS, 5.12 µM
[10] = HPLM + 10% dialyzed FBS, 15.4 µM
[11] = HPLM + 10% dialyzed FBS, 46.1 µM
[12] = RPMI 5 mM glucose + 10% FBS, 0.000781 µM
[13] = RPMI 5 mM glucose + 10% FBS, 0.00234 µM
[14] = RPMI 5 mM glucose + 10% FBS, 0.00702 µM
[15] = RPMI 5 mM glucose + 10% FBS, 0.0211 µM
[16] = RPMI 5 mM glucose + 10% FBS, 0.0632 µM
[17] = RPMI 5 mM glucose + 10% FBS, 0.19 µM
[18] = RPMI 5 mM glucose + 10% FBS, 0.569 µM
[19] = RPMI 5 mM glucose + 10% FBS, 1.71 µM
[20] = RPMI 5 mM glucose + 10% FBS, 5.12 µM
[21] = RPMI 5 mM glucose + 10% FBS, 15.4 µM
[22] = RPMI 5 mM glucose + 10% FBS, 46.1 µM
[23] = RPMI 5 mM glucose + 10% dialyzed FBS, 0.000781 µM
[24] = RPMI 5 mM glucose + 10% dialyzed FBS, 0.00234 µM
[25] = RPMI 5 mM glucose + 10% dialyzed FBS, 0.00702 µM
[26] = RPMI 5 mM glucose + 10% dialyzed FBS, 0.0211 µM
[27] = RPMI 5 mM glucose + 10% dialyzed FBS, 0.0632 µM
[28] = RPMI 5 mM glucose + 10% dialyzed FBS, 0.19 µM
[29] = RPMI 5 mM glucose + 10% dialyzed FBS, 0.569 µM
[30] = RPMI 5 mM glucose + 10% dialyzed FBS, 1.71 µM
[31] = RPMI 5 mM glucose + 10% dialyzed FBS, 5.12 µM
[32] = RPMI 5 mM glucose + 10% dialyzed FBS, 15.4 µM
[33] = RPMI 5 mM glucose + 10% dialyzed FBS, 46.1 µM

CO[C@@H]1[C@@H](OC(N)=O)[C@@H](O)[C@H](OC2=CC=C3\C(=C(NC(=O)C4=CC=C([O-])C(=C4)CC=C(C)C)/C(=O)OC3=C2C)O)OC1(C)C
cell viability [1]: 118% | cell viability [2]: 108% | cell viability [3]: 119% | cell viability [4]: 115% | cell viability [5]: 111% | cell viability [6]: 106% | cell viability [7]: 110% | cell viability [8]: 104% | cell viability [9]: 102% | cell viability [10]: 100% | cell viability [11]: 100% | cell viability [12]: 107% | cell viability [13]: 108% | cell viability [14]: 124% | cell viability [15]: 110% | cell viability [16]: 114% | cell viability [17]: 110% | cell viability [18]: 113% | cell viability [19]: 110% | cell viability [20]: 108% | cell viability [21]: 94.2% | cell viability [22]: 97.8% | cell viability [23]: 109% | cell viability [24]: 105% | cell viability [25]: 109% | cell viability [26]: 110% | cell viability [27]: 105% | cell viability [28]: 106% | cell viability [29]: 108% | cell viability [30]: 109% | cell viability [31]: 98% | cell viability [32]: 98.5% | cell viability [33]: 88.3%

CC(=O)Oc1cc2c(s1)CCN(C(C(=O)C1CC1)c1ccccc1F)C2.Cl (stereo unspecified)
cell viability [1]: 95% | cell viability [2]: 102% | cell viability [3]: 100% | cell viability [4]: 107% | cell viability [5]: 107% | cell viability [6]: 103% | cell viability [7]: 107% | cell viability [8]: 112% | cell viability [9]: 101% | cell viability [10]: 106% | cell viability [11]: 65.1% | cell viability [12]: 100% | cell viability [13]: 106% | cell viability [14]: 101% | cell viability [15]: 111% | cell viability [16]: 115% | cell viability [17]: 124% | cell viability [18]: 116% | cell viability [19]: 133% | cell viability [20]: 101% | cell viability [21]: 94.8% | cell viability [22]: 53.5% | cell viability [23]: 95.9% | cell viability [24]: 105% | cell viability [25]: 102% | cell viability [26]: 104% | cell viability [27]: 103% | cell viability [28]: 112% | cell viability [29]: 104% | cell viability [30]: 101% | cell viability [31]: 99.7% | cell viability [32]: 80.3% | cell viability [33]: 50.3%

O=C(O)[C@@H](c1ccc(OCc2ccc3ccccc3n2)cc1)C1CCCC1
cell viability [1]: 113% | cell viability [2]: 114% | cell viability [3]: 106% | cell viability [4]: 109% | cell viability [5]: 109% | cell viability [6]: 102% | cell viability [7]: 107% | cell viability [8]: 99.6% | cell viability [9]: 106% | cell viability [10]: 102% | cell viability [11]: 98.7% | cell viability [12]: 116% | cell viability [13]: 116% | cell viability [14]: 110% | cell viability [15]: 110% | cell viability [16]: 102% | cell viability [17]: 106% | cell viability [18]: 107% | cell viability [19]: 107% | cell viability [20]: 92.8% | cell viability [21]: 98% | cell viability [22]: 96.9% | cell viability [23]: 108% | cell viability [24]: 112% | cell viability [25]: 112% | cell viability [26]: 113% | cell viability [27]: 108% | cell viability [28]: 109% | cell viability [29]: 106% | cell viability [30]: 101% | cell viability [31]: 95.8% | cell viability [32]: 102% | cell viability [33]: 100%

CN(C)/[N+]([O-])=N/Oc1cc(ON[N+](=O)N2CCN(C(=O)c3cc(Cc4n[nH]c(=O)c5ccccc45)ccc3F)CC2)c([N+](=O)[O-])cc1[N+](=O)[O-]
cell viability [1]: 102% | cell viability [2]: 105% | cell viability [3]: 111% | cell viability [4]: 112% | cell viability [5]: 120% | cell viability [6]: 109% | cell viability [7]: 106% | cell viability [8]: 106% | cell viability [9]: 105% | cell viability [10]: 106% | cell viability [11]: 99.4% | cell viability [12]: 106% | cell viability [13]: 117% | cell viability [14]: 116% | cell viability [15]: 120% | cell viability [16]: 117% | cell viability [17]: 121% | cell viability [18]: 120% | cell viability [19]: 130% | cell viability [20]: 108% | cell viability [21]: 114% | cell viability [22]: 119% | cell viability [23]: 97% | cell viability [24]: 96.2% | cell viability [25]: 115% | cell viability [26]: 101% | cell viability [27]: 109% | cell viability [28]: 108% | cell viability [29]: 120% | cell viability [30]: 111% | cell viability [31]: 100% | cell viability [32]: 106% | cell viability [33]: 103%

O=C(NCCCNc1nc(Nc2cccc(NC(=O)N3CCCC3)c2)ncc1I)c1cccs1
cell viability [1]: 91.6% | cell viability [2]: 91.9% | cell viability [3]: 93% | cell viability [4]: 90.9% | cell viability [5]: 87.3% | cell viability [6]: 84% | cell viability [7]: 81.3% | cell viability [8]: 72.5% | cell viability [9]: 84.9% | cell viability [10]: 76.1% | cell viability [11]: 85.1% | cell viability [12]: 83.2% | cell viability [13]: 91% | cell viability [14]: 87.6% | cell viability [15]: 90% | cell viability [16]: 85.9% | cell viability [17]: 90.4% | cell viability [18]: 94.2% | cell viability [19]: 50% | cell viability [20]: 84.5% | cell viability [21]: 83.7% | cell viability [22]: 79.9% | cell viability [23]: 88.1% | cell viability [24]: 84.6% | cell viability [25]: 79.8% | cell viability [26]: 82.6% | cell viability [27]: 91.7% | cell viability [28]: 88.1% | cell viability [29]: 84.9% | cell viability [30]: 81.4% | cell viability [31]: 80.2% | cell viability [32]: 85.6% | cell viability [33]: 72.4%

O=P1(N(CCCl)CCCl)NCCCO1 (stereo unspecified)
cell viability [1]: 112% | cell viability [2]: 113% | cell viability [3]: 115% | cell viability [4]: 113% | cell viability [5]: 106% | cell viability [6]: 109% | cell viability [7]: 101% | cell viability [8]: 106% | cell viability [9]: 98.1% | cell viability [10]: 16.5% | cell viability [11]: 6.1% | cell viability [12]: 112% | cell viability [13]: 113% | cell viability [14]: 109% | cell viability [15]: 113% | cell viability [16]: 108% | cell viability [17]: 113% | cell viability [18]: 112% | cell viability [19]: 102% | cell viability [20]: 101% | cell viability [21]: 51.8% | cell viability [22]: 8.07% | cell viability [23]: 115% | cell viability [24]: 109% | cell viability [25]: 106% | cell viability [26]: 102% | cell viability [27]: 107% | cell viability [28]: 117% | cell viability [29]: 108% | cell viability [30]: 101% | cell viability [31]: 101% | cell viability [32]: 90% | cell viability [33]: 17.3%

C[N]1N=CC2=C1C=C(C(=C2)OC3=CC=C(NC(=O)\C4=C\C=C(\C)N(C4=O)C5=CC=C(F)C=C5)C=C3F)C6=C[NH]N=C6
cell viability [1]: 99.5% | cell viability [2]: 113% | cell viability [3]: 117% | cell viability [4]: 114% | cell viability [5]: 114% | cell viability [6]: 127% | cell viability [7]: 123% | cell viability [8]: 104% | cell viability [9]: 78.1% | cell viability [10]: 12% | cell viability [11]: 8.97% | cell viability [12]: 104% | cell viability [13]: 109% | cell viability [14]: 115% | cell viability [15]: 117% | cell viability [16]: 127% | cell viability [17]: 130% | cell viability [18]: 130% | cell viability [19]: 128% | cell viability [20]: 78.9% | cell viability [21]: 16.1% | cell viability [22]: 10.5% | cell viability [23]: 119% | cell viability [24]: 123% | cell viability [25]: 130% | cell viability [26]: 125% | cell viability [27]: 124% | cell viability [28]: 138% | cell viability [29]: 129% | cell viability [30]: 128% | cell viability [31]: 90.2% | cell viability [32]: 26.6% | cell viability [33]: 16.3%
